Reference: patent US20240317721A1, “PYRAZOLYL DERIVATIVES AS INHIBITORS OF THE KRAS MUTANT PROTEIN” (NOVARTIS AG, priority 2021, published 2024)

Molecular target: KRasG12C (M1-K169, biotinylated on the N-terminus) (Homo sapiens (Human), UniProt P01116, G12C)
Experiment: Covalent competition assay: scintillation proximity assay (SPA) quantifying covalent modification of KRASG12C
Format: binding
Details: competition with radiolabeled covalent probe (Compound B/Compound A), 2 hours incubation, 10 nM KRasG12C
Summary of the method: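 Test compounds compete with a radiolabeled covalent probe for modification of N-terminally biotinylated KRasG12C(M1-K169):GDP, final 10 nM protein, 25 nM radio-ligand, 475 nM unlabelled ligand, 2 h with agitation in 20 mM Tris-HCl pH 7.5, 150 mM NaCl, 0.1 mM MgCl2, 0.01% Tween-20.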

Row | SMILES | IC50
1 | C=CC(=O)N1CC2(CC(n3nc(N4CCN(C(C)(C)CO)CC45CCC5)c(-c4c(Cl)c(C)cc5[nH]ncc45)c3C)C2)C1 (single isomer, unassigned) [Example 190a, 1-(6-(4-(5-Chloro-6-methyl-1H-indazol-4-yl)-3-(8-(1-hydroxy-2-methylpropan-2-yl)-5,8-diazaspiro[3.5]nonan-5-yl)-5-methyl-1H-pyrazol-1-yl)-2-azaspiro[3.3]heptan-2-yl)prop-2-en-1-one] | 4.5 µM
2 | C=CC(=O)N1CC2(CC(n3nc(N4CCN(C(=O)[C@@H]5CCCO5)CC45CCC5)c(-c4c(Cl)c(C)cc5[nH]ncc45)c3C)C2)C1 (single isomer, unassigned) [Example 124a] | > 5 µM
3 | C=CC(=O)N1CC2(CC(n3nc(N4CCN(CC(C)(C)O)CC45CCCC5)c(-c4c(Cl)c(C)cc5[nH]ncc45)c3C)C2)C1 (single isomer, unassigned) [Example 165a, 1-(6-(4-(5-chloro-6-methyl-1H-indazol-4-yl)-3-(9-(2-hydroxy-2-methylpropyl)-6,9-diazaspiro[4.5]decan-6-yl)-5-methyl-1H-pyrazol-1-yl)-2-azaspiro[3.3]heptan-2-yl)prop-2-en-1-one] | > 5 µM
4 | C=CC(=O)N1CC2(CC(n3nc(N4CCN(C5CCOCC5)CC45CCC5)c(-c4c(Cl)c(Cl)cc5[nH]ncc45)c3C)C2)C1 (single isomer, unassigned) [Example 145a, 1-(6-(4-(5,6-dichloro-1H-indazol-4-yl)-5-methyl-3-(8-(tetrahydro-2H-pyran-4-yl)-5,8-diazaspiro[3.5]nonan-5-yl)-1H-pyrazol-1-yl)-2-azaspiro[3.3]heptan-2-yl)prop-2-en-1-one] | 4.3 µM

Now those with a lower IC50, led by results:

Row | IC50 | SMILES
5 | 0.007 µM | C=CC(=O)N1CC2(CC(n3nc(N4CCN(C5COC5)CC45CCC5)c(-c4c(Cl)c(C)cc5[nH]nc(N)c45)c3C)C2)C1 (single isomer, unassigned) [Example 114a, 1-(6-(4-(3-amino-5-chloro-6-methyl-1H-indazol-4-yl)-5-methyl-3-(8-(oxetan-3-yl)-5,8-diazaspiro[3.5]nonan-5-yl)-1H-pyrazol-1-yl)-2-azaspiro[3.3]heptan-2-yl)prop-2-en-1-one]
6 | 0.023 µM | C=CC(=O)N1C[C@]2(C[C@H](n3nc(N4CCN(C[C@@H]5COCCO5)C[C@]4(C)CC)c(-c4c(Cl)c(C)cc5[nH]ncc45)c3C)C2)[C@H]1C (single isomer, unassigned) [Example 200b]
7 | 0.006 µM | C=CC(=O)N1CC2(CC(n3nc(N4CC[C@@H](CN(C)CC(=O)N5CCCC5)CC4(C)C)c(-c4c(Cl)c(Cl)cc5[nH]ncc45)c3C)C2)C1 (single isomer, unassigned) [Example 252b]
8 | 0.046 µM | C=CC(=O)N1CC2(CC(n3nc(N4CCN(C5CCOCC5)CC4(C)C)c(-c4c(Cl)c(C)cc5[nH]ncc45)c3C)C2)C1 (single isomer, unassigned) [Example 134b, 1-(6-(4-(5-chloro-6-methyl-1H-indazol-4-yl)-3-(2,2-dimethyl-4-(tetrahydro-2H-pyran-4-yl)piperazin-1-yl)-5-methyl-1H-pyrazol-1-yl)-2-azaspiro[3.3]heptan-2-yl)prop-2-en-1-one]
9 | 1.7 µM | C=CC(=O)N1CC2(CC(n3nc(N4CCC(N(C)C(=O)COC)CC4(C)C)c(-c4c(Cl)c(C)cc5[nH]ncc45)c3C)C2)C1 (single isomer, unassigned) [Example 97b, N-(1-(1-(2-acryloyl-2-azaspiro[3.3]heptan-6-yl)-4-(5-chloro-6-methyl-1H-indazol-4-yl)-5-methyl-1H-pyrazol-3-yl)-2,2-dimethylpiperidin-4-yl)-2-methoxy-N-methylacetamide]
10 | 0.013 µM | C=CC(=O)N1CC2(CC(n3nc(N4CCC(N5CCOCC5)CC4(C)C)c(-c4c(Cl)c(C)cc5[nH]ncc45)c3C)C2)C1 (single isomer, unassigned) [Example 34b, 1-(6-(4-(5-chloro-6-methyl-1H-indazol-4-yl)-3-(2,2-dimethyl-4-morpholinopiperidin-1-yl)-5-methyl-1H-pyrazol-1-yl)-2-azaspiro[3.3]heptan-2-yl)prop-2-en-1-one]
